Results from patent publication US20100190834A1, “COMPOSITION FOR OPHTALMIC DISEASE ASSOCIATED WITH HYPOXIA OR ISCHEMIA” (R-TECH UENO, LTD., priority 2007, published 2010).
Marks after values point to notes of the source that are not given here.

Tested on: oxygen-induced retinopathy model mouse
Experiment: Oxygen-induced retinopathy model mouse (model of retinopathy of prematurity), retina flat mount analysis
Assay type: in vivo, C57BL/6N mouse
Conditions: for abnormal angiogenesis region (%) / normal blood vessel region (%): average, p < 0.05 vs medium; for avascular region (result in words) / effect on abnormal angiogenesis (result in words): summary of Table 1 and Table 2, compared with medium group
Protocol: A model experiment of retinopathy of prematurity, which is an ophthalmic disease associated with hypoxia or ischemia, was performed based on a quantitative analysis method of oxygen-induced retinopathy model mouse (Experimental Eye Research 84 (2007) 529-536).
The date of birth of mouse was taken as day 0 of age. On day 7 of age, the mouse was placed in a high oxygen concentration breeding device together with the mother mouse and bred under high oxygen conditions (oxygen concentration 75±5%) up to day 12 of age. On day 12 of age, the high oxygen concentration breeding was terminated and the mouse was immediately placed under general breeding with intraperitoneal administration of the medium or test solution 1 twice a day for 7 days. On day 19 of age, retina flat mount was prepared from 4 mice out of the litter.
The mice were anesthetized by intraperitoneal administration of nembutal (1/10-fold diluted, 5 mg/mL) at 0.1 mL/mouse. The thoracic cavity was opened, and 1 mL of fluorescein isothiocyanate-dextran (FITC-dextran 20 mg/mL, FD2000S-1G, manufactured by SIGMA) was perfused from the heart.
After perfusion, the eyeball was immediately isolated, and fixed with 4% para-formaldehyde for 3-4 hr. The eyeball was anatomized to isolate retina, which as developed on a slide glass to prepare a flat mount. The whole retina area, avascular region and abnormal angiogenesis region were encircled with a stylus pen (CTE-640/S1, WACOM FVO) under a fluorescence microscope (ECLIPSE 80i, manufactured by Nikon), and measured using an analysis soft (WinROOF ver. 5.7.0, MITAMI Cor.), based on which the normal blood vessel region and abnormal angiogenesis region were calculated and compared.
normal blood vessel region (%): [{(whole retina area)−(area of avascular region)}/(whole retina area)]×100
abnormal angiogenesis region (%): {(abnormal angiogenesis region)/(whole retina area)}×100
In the same manner as in Experimental Example 1 except that test solution 2 was administered once a day, test solution 2 was intraperitoneally administered to model mouse for 7 days, and the normal blood vessel region and abnormal angiogenesis region thereof were measured.

[1] = test solution 1 (0.01 mg/mL) intraperitoneal twice a day for 7 days from day 12 of age, retina flat mount on day 19, 12 eyes
[2] = test solution 2 (0.01 mg/mL) intraperitoneal once a day for 7 days, 18 eyes

Row | SMILES | abnormal angiogenesis region (%) [1] | normal blood vessel region (%) [1] | avascular region (result in words) | effect on abnormal angiogenesis (result in words) | abnormal angiogenesis region (%) [2] | normal blood vessel region (%) [2]
1 | CC(=O)Nc1nc(CCc2ccc(CC(=O)NN)cc2)cs1 [test substance 1, N-{4-[2-(4-hydrazinocarbonylmethylphenyl)ethyl]-1,3-thiazol-2-yl}acetamide] | 7.04* % | 93.44* % | a decrease in the avascular region | a suppressive effect on abnormal angiogenesis |  | 
2 | CC(=O)Nc1nc(CCc2ccc(CCNC(=N)N)cc2)cs1 [test substance 2, N-(4-{2-[4-(2-{[amino(imino)methyl]amino}ethyl)phenyl]ethyl}-1,3-thiazol-2-yl)acetamide] |  |  | a decrease in the avascular region | a suppressive effect on abnormal angiogenesis | 6.79* % | 94.69* %
